From paper PMC9046208, “Foldamers reveal and validate therapeutic targets associated with toxic α-synuclein self-assembly” (Nature Communications, 2022)

Experiments:
[1] = system: NL5901; assay: αS-YFP inclusion count in C elegans NL5901; format: in vivo; conditions: NL5901, 15 μM SK-129, day 8 of adulthood; untreated ~33
Procedure: The assay was carried out based on a previous protocol[57] with slight modifications. On day one, N2 and NL5901 strains were synchronized through the bleaching process involving egglay and the incubation of the eggs at an ambient temperature (~23 °C) on a solution of 3 mL NGM media in 60 mm culture plates (CytoOne, USA Scientific, Ocala, FL). The plates were seeded with 300 µL OP50 at an O.D. of 0.5 for 30 h. Simultaneously, a solution of 15 µM SK-129 (Stock solution concentration = 10 mM in DMSO) was made in M9 buffer and added to two sterilized 35 mm NGM solid media plates (Fisher Scientific, Pittsburgh, PA). The plates were already containing 2 mL of NGM solid media and 75 µM Fluorodeoxyuridine (FUDR) to prevent offspring in the worms. […] On day five, motility assay was conducted for worms under different conditions in duplicate using a WMicroTracker Arena plate reader (Phylumtech, Argentina) at ~23 °C for 1 h per day over a period of 12 days. […]
The worms from the NL5901 strain were treated in the absence and presence of SK-129 (15 µM SK-129, stock solution concentration = 10 mM in DMSO) as described in the paralysis experiment. […] For each experiment, at least 15 worms were used, and the inclusions were counted manually, and each condition consisted of at least four independent experiments.

[2] = molecular target: Aβ42 (Homo sapiens, UniProt P05067); assay: Fluorescence polarization titration, SK-129F with Aβ42; format: binding; conditions: FP, higher Kd for Aβ42
Chain of Aβ42 (P05067 672-713 limits assumed, species assumed): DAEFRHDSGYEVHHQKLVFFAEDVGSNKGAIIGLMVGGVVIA
Procedure: All Fluorescence Polarization (FP) experiments were conducted on a Varian Cary Eclipse fluorometer (Agilent, Santa Clara, CA) equipped with a polarizer. The stock solutions of αS, 1 mM or 100 μM in 1x PBS buffer, were serially added into a solution of 10 μM SK-129F (300 μL in 1x PBS buffer) while stirring in a quartz cuvette (Fireflysci, Staten Island, NY). All FP measurements were conducted in triplicates in 20 mM Tris, 100 mM NaCl, pH 7.2 at 20 °C. The excitation and emissions wavelengths were set at 490 nm and 520 nm, respectively. Each titration was equilibrated for five min before measurements were taken for the next addition of αS solution. The addition of αS solution was continuous until no more change in the FP signal was observed. Similar conditions were used for the titration of various αS mutants and Aβ42 peptide against SK-129F. A stock solution of Aβ42 (1 mM or 100 μM in 1x PBS buffer on ice) was sequentially added to a solution of 10 μM SK-129F (300 μL in 1x PBS buffer) until no more change in the FP signal was observed. The polarization of each point was calculated using Eq. 1:1 FP=I∥−I⊥/I∥+I⊥ Where I∥ is fluorescence intensity parallel to the excitation plane and I⊥ is fluorescence intensity perpendicular to the excitation plane. […]

Kd for Aβ42 relative to αS [2]: more than 15 fold
SMILES: COC(=O)c1cc(OCC(=O)O)c2cccc(NC(=O)c3cc(OC(C)C)c4cccc(NC(=O)c5cc(OCC(=O)O)c6cccc(NC(=O)c7cc(OC(C)C)c8cccc([N+](=O)[O-])c8n7)c6n5)c4n3)c2n1 [SK-129]
number of αS-YFP inclusions [1]: 8–9 inclusions/C elegans
